The subject of data set [1] is Staphylococcus aureus. Briefly: Antibacterial activity against Staphylococcus aureus ATCC25923 incubated for 20 to 24 hrs. It is filed as functional. As to conditions: time 20-24 hrs.
For data set [2], the system named is Escherichia coli. Briefly: Bactericidal activity against Escherichia coli ATCC25922 incubated for 20 to 24 hrs. It is filed as functional. As to conditions: time 20-24 hrs.
Data set [3] concerns Stenotrophomonas maltophilia. The data set can be described thus: Antibacterial activity against Stenotrophomonas maltophilia ATCC17808 incubated for 20 to 24 hrs. It is filed as functional. As to conditions: time 20-24 hrs.
The subject of data set [4] is Staphylococcus aureus. Briefly: Bactericidal activity against Staphylococcus aureus ATCC25923 incubated for 20 to 24 hrs. It is filed as functional. The note with it: time 20-24 hrs.
Data set [5] relates to Stenotrophomonas maltophilia. Briefly: Antibacterial activity against Stenotrophomonas maltophilia ATCC17808 incubated for 16 to 20 hrs by broth microdilution method. The note with it: time 16-20 hrs. It is filed as functional.
Data set [6] concerns Enterococcus faecalis. The data set can be described thus: Antibacterial activity against Enterococcus faecalis ATCC29212 incubated for 20 to 24 hrs. As to conditions: time 20-24 hrs. It is filed as functional.
The test system of data set [7] is Escherichia coli. The data set can be described thus: Ratio of MBC to MIC for Escherichia coli ATCC25922 incubated for 20 to 24 hrs. It is filed as functional. As to conditions: time 20-24 hrs.
For data set [8], the system named is Escherichia coli. The data set can be described thus: Antibacterial activity against Escherichia coli ATCC25922 incubated for 20 to 24 hrs. It is filed as functional. As to conditions: time 20-24 hrs.
Data set [9] deals with Enterococcus faecalis. Briefly: Ratio of MBC to MIC for Enterococcus faecalis ATCC29212 incubated for 20 to 24 hrs. It is filed as functional. The note with it: time 20-24 hrs.
The subject of data set [10] is Staphylococcus aureus. The data set can be described thus: Antibacterial activity against drug-resistant Staphylococcus aureus clinical isolate M20 incubated for 16 to 20 hrs by broth microdilution method. It is filed as functional. As to conditions: time 16-20 hrs.
For data set [11], the system named is Staphylococcus aureus. Briefly: Antibacterial activity against Staphylococcus aureus ATCC25923 incubated for 16 to 20 hrs by broth microdilution method. It is filed as functional. As to conditions: time 16-20 hrs. For orientation: Broth dilution looks for growth in wells or tubes with falling amounts of substance.
In data set [12] the test system is Escherichia coli. Briefly: Antibacterial activity against Escherichia coli ATCC25922 incubated for 16 to 20 hrs by broth microdilution method. It is filed as functional. The note with it: time 16-20 hrs.
The test system of data set [13] is Escherichia coli. Briefly: Antibacterial activity against drug-resistant Escherichia coli clinical isolate 1333 incubated for 16 to 20 hrs by broth microdilution method. It is filed as functional. As to conditions: time 16-20 hrs.
The test system of data set [14] is Enterococcus faecalis. The data set can be described thus: Antibacterial activity against Enterococcus faecalis ATCC29212 incubated for 16 to 20 hrs by broth microdilution method. It is filed as functional. The note with it: time 16-20 hrs.
Data set [15] deals with Escherichia coli. Briefly: Antibacterial activity against drug-resistant Escherichia coli clinical isolate 1322 incubated for 16 to 20 hrs by broth microdilution method. It is filed as functional. The note with it: time 16-20 hrs.
Data set [16] has as its system Enterococcus faecalis. Briefly: Bactericidal activity against Enterococcus faecalis ATCC29212 incubated for 20 to 24 hrs. It is filed as functional. The note with it: time 20-24 hrs.
In data set [17] the test system is Stenotrophomonas maltophilia. Briefly: Ratio of MBC to MIC for Stenotrophomonas maltophilia ATCC17808 incubated for 20 to 24 hrs. The note with it: time 20-24 hrs. It is filed as functional.
The subject of data set [18] is Stenotrophomonas maltophilia. Briefly: Bactericidal activity against Stenotrophomonas maltophilia ATCC17808 incubated for 20 to 24 hrs. It is filed as functional. As to conditions: time 20-24 hrs.
Data set [19] deals with Staphylococcus aureus. The data set can be described thus: Ratio of MBC to MIC for Staphylococcus aureus ATCC25923 incubated for 20 to 24 hrs. It is filed as functional. As to conditions: time 20-24 hrs.
The subject of data set [20] is Escherichia coli. Briefly: Antibacterial activity against Escherichia coli ATCC25922 under 10^6 CFU/ml of bacterial inoculum culture by absorbance based assay. It is filed as functional.
The nature of data set [21]: Selectivity index, ratio of IC50 for mouse HT-22 cells to MIC for methicillin-resistant Staphylococcus aureus. It is filed as toxicity, cell-based.
For data set [22], the system named is Escherichia coli. The data set can be described thus: Antibacterial activity against Escherichia coli ATCC25922 under 10^7 CFU/ml of bacterial inoculum culture by absorbance based assay. It is filed as functional.
For data set [23], the system named is Staphylococcus aureus. Briefly: Antibacterial activity against Staphylococcus aureus ATCC25923 under 10^5 CFU/ml of bacterial inoculum culture by absorbance based assay. It is filed as functional.
The nature of data set [24]: Cytotoxicity against mouse HT-22 cells incubated for 72 hrs by MTT assay. It is filed as toxicity, cell-based.
For data set [25], the system named is Staphylococcus aureus. Briefly: Antibacterial activity against Staphylococcus aureus ATCC25923 under 10^4 CFU/ml of bacterial inoculum culture by absorbance based assay. It is filed as functional.
Data set [26] concerns Staphylococcus aureus. Briefly: Antibacterial activity against Staphylococcus aureus ATCC25923 under 10^6 CFU/ml of bacterial inoculum culture by absorbance based assay. It is filed as functional.
The subject of data set [27] is Staphylococcus aureus. The data set can be described thus: Antibacterial activity against Staphylococcus aureus ATCC25923 under 10^7 CFU/ml of bacterial inoculum culture by absorbance based assay. It is filed as functional.
Data set [28] has as its system Escherichia coli. Briefly: Antibacterial activity against Escherichia coli ATCC25922 under 10^4 CFU/ml of bacterial inoculum culture by absorbance based assay. It is filed as functional.
For data set [29], the system named is Escherichia coli. Briefly: Antibacterial activity against Escherichia coli ATCC25922 under 10^5 CFU/ml of bacterial inoculum culture by absorbance based assay. It is filed as functional.
Data set [30] concerns Staphylococcus aureus. The data set can be described thus: Induction of resistance development in Staphylococcus aureus ATCC25923 treated daily with continuous passaging measured after 13 passages by absorbance based assay. It is filed as functional. The note with it: ATCC25923, 312 h, time 13 day.
Data set [31] concerns Staphylococcus aureus. Briefly: Induction of resistance development in Staphylococcus aureus ATCC25923 treated daily with continuous passaging measured after 16 passages by absorbance based assay. It is filed as functional. The note with it: ATCC25923, 384 h, time 16 day.

≈ marks a conversion by molar mass, not a printed value. Bounds are passed on as bounds.

Broadly, the MIC is the lowest concentration that inhibits growth of the organism. A higher MIC goes with a need for much substance. As a reminder, the MBC is the smallest concentration meeting the test's criterion for killing. A low value points to greater bactericidal potency. For `CC[C@H]1OC(=O)C[C@@H](O)[C@H](C)[C@@H](O[C@@H]2O[C@H](C)[C@@H](O)[C@H](N(C)C)[C@H]2O)[C@@H](CCNCc2cn(-c3cnc4ccccc4c3)nn2)C[C@@H](C)C(=O)/C=C/C(C)=C/[C@@H]1CNCc1ccc(C)cc1`, the MIC in data set [1] amounted to 0.5 µg/mL (≈ 0.549 µM); in data set [3], 2 µg/mL (≈ 2.2 µM); in data set [5], 1 µg/mL (≈ 1.1 µM); in [6], 1 µg/mL (≈ 1.1 µM); in [8], 0.5 µg/mL (≈ 0.549 µM); in data set [10], 0.5 µg/mL (≈ 0.549 µM). For the same compound, the MIC is 0.5 µg/mL (≈ 0.549 µM) in data set [11]; 1 µg/mL (≈ 1.1 µM) in data set [12]; 4 µg/mL (≈ 4.39 µM) in [13]; 1 µg/mL (≈ 1.1 µM) in data set [14]; 1 µg/mL (≈ 1.1 µM) in data set [15]. Besides, the MBC was 1 µg/mL (≈ 1.1 µM) in [2], 1 µg/mL (≈ 1.1 µM) in data set [4], 8 µg/mL (≈ 8.79 µM) in data set [16] and 4 µg/mL (≈ 4.39 µM) in [18]. Besides, the Ratio in [7], in data set [9], in data set [17] and in [19] was 2 each time.
For `CC[C@H]1OC(=O)C[C@@H](O)[C@H](C)[C@@H](O[C@@H]2O[C@H](C)[C@@H](O)[C@H](N(C)C)[C@H]2O)[C@@H](CCN(C)Cc2cn(-c3cnc4ccccc4c3)nn2)C[C@@H](C)C(=O)/C=C/C(C)=C/[C@@H]1CN(C)Cc1ccccc1`, the minimum inhibitory concentration (MIC) in data set [1] was 16 µg/mL (≈ 17.3 µM); in data set [3], 4 µg/mL (≈ 4.33 µM); in [5] it was 1 µg/mL (≈ 1.08 µM); in [6], 4 µg/mL (≈ 4.33 µM); in data set [8], 1 µg/mL (≈ 1.08 µM); in [10], 0.5 µg/mL (≈ 0.541 µM). Besides, the MIC in data set [11] came out at 0.5 µg/mL (≈ 0.541 µM); in data set [12] it was 1 µg/mL (≈ 1.08 µM); in data set [13], 2 µg/mL (≈ 2.16 µM); in data set [14] it was 1 µg/mL (≈ 1.08 µM); in data set [15], 1 µg/mL (≈ 1.08 µM). In addition, the MBC was 4 µg/mL (≈ 4.33 µM) in data set [2], greater than 32 µg/mL in [4], 8 µg/mL (≈ 8.66 µM) in data set [16] and 16 µg/mL (≈ 17.3 µM) in [18]. Moreover, the Ratio was found to be 4 in [7], 2 in data set [9] and 4 in data set [17].
In general, IC50 refers to the concentration needed to halve the response being measured. High values mean weaker potency, low ones greater potency. With `CC[C@H]1OC(=O)C[C@@H](O)[C@H](C)[C@@H](O[C@@H]2O[C@H](C)[C@@H](O)[C@H](N(C)C)[C@H]2O)[C@@H](CCN2CCCCC2)C[C@@H](C)C(=O)/C=C/C(C)=C/[C@@H]1CN1CCCCC1` [TILDIPIROSIN], the MIC in data set [20] is greater than 32 µg/mL; in data set [1], 0.5 µg/mL (≈ 0.681 µM); in [3] it was 8 µg/mL (≈ 10.9 µM); in [22], greater than 32 µg/mL; in data set [5] it was 1 µg/mL (≈ 1.36 µM); in data set [6] it was 8 µg/mL (≈ 10.9 µM). For the same compound, the minimal inhibitory concentration (MIC) in [8] amounted to 32 µg/mL (≈ 43.6 µM); in data set [23] it was 0.5 µg/mL (≈ 0.681 µM); in data set [25], 0.5 µg/mL (≈ 0.681 µM); in data set [10] it was 32 µg/mL (≈ 43.6 µM); in data set [11], 16 µg/mL (≈ 21.8 µM); in data set [12], 1 µg/mL (≈ 1.36 µM). Moreover, the MIC in data set [13] was 16 µg/mL (≈ 21.8 µM); in data set [26] it was 1 µg/mL (≈ 1.36 µM); in data set [27], 1 µg/mL (≈ 1.36 µM); in [14], 16 µg/mL (≈ 21.8 µM); in data set [28], greater than 32 µg/mL; in data set [15], 4 µg/mL (≈ 5.45 µM). Further, the MIC in [29] was greater than 32 µg/mL. For the same compound, in data set [21], the selectivity ratio worked out at 3.56. In addition, the results for the MBC in data set [4], in data set [16] and in data set [18] were 4 µg/mL (≈ 5.45 µM), 16 µg/mL (≈ 21.8 µM) and 16 µg/mL (≈ 21.8 µM), respectively. Further, the values for the Ratio in data set [9], in data set [17] and in [19] were 2, 2 and 8, respectively. Also, in data set [24], the IC50 at 72 h amounted to 114 µg/mL (≈ 155 µM).
With `CC(=O)NC[C@H]1CN(c2ccc(N3CCOCC3)c(F)c2)C(=O)O1` [LINEZOLID], the MIC is less than 0.063 µg/mL in [20]; 8 µg/mL (≈ 23.7 µM) in data set [30]; less than 0.063 µg/mL in data set [22]; greater than 32 µg/mL in data set [5]; 16 µg/mL (≈ 47.4 µM) in data set [31]; greater than 32 µg/mL in data set [12]. For the same compound, the MIC in [28] and in data set [29] was less than 0.063 µg/mL in each case.

The record behind these values is ChEMBL document CHEMBL6074711, “Design, Synthesis, and Activity Evaluation of C-23-Modified 5-O-Mycaminosyltylonolide Derivatives” (ACS Med Chem Lett, 2024).
